Data reported in US20100227859A1, “TRICYCLIC COMPOUNDS AS MATRIX METALLOPROTEINASE INHIBITORS” (priority 2007, published 2010).

molecular target: purified human MMP-12 enzyme (Homo sapiens, UniProt P39900); experiment: MMP-12 FRET assay; assay type: biochemical; conditions: substrate 20 μM, room temperature
Description: Compounds according to the present teachings were tested in an MMP-12 FRET assay as follows. To each well of black polystyrene 96-well plate was added assay buffer (50 mM HEPES (pH 7.4), 100 mM NaCl, 5 mM CaCl2 and 0.005% Brij-35 (Polyoxyethyleneglycol dodecyl ether, Pierce cat#20150), purified human MMP-12 enzyme, and varied concentrations of test compounds (prepared by serial dilution of a stock solution in 100% DMSO). The plates were incubated at room temperature for 30 minutes. The enzymatic reactions were initiated by addition of a substrate, MCA-Pro-Leu-Gly-Leu-Dpa(DNP)-Ala-Arg, containing a fluorescent group (7-methoxycoumarin, MCA) and a 2,4-dinitrophenyl group (DNP), to a final concentration of 20 μM. The final DMSO concentration in the assay was 10%. The reaction was monitored for 30 minutes at room temperature and the initial rate of the cleavage reaction was determined using a fluorescence plate reader (λex: 325 nm, λem: 395 nm). Plots of the inhibitor concentration vs. the initial cleavage rate were fit to the following equation: y=Vmax*(1−(x^n/(K^n+x^n))), whereby x=inhibitor concentration, y=initial rate, Vmax=initial rate in the absence of inhibitor, n=slope factor, and K=IC50 for the inhibition curve.

purified human MMP-12 enzyme, sequence (P39900 106-470): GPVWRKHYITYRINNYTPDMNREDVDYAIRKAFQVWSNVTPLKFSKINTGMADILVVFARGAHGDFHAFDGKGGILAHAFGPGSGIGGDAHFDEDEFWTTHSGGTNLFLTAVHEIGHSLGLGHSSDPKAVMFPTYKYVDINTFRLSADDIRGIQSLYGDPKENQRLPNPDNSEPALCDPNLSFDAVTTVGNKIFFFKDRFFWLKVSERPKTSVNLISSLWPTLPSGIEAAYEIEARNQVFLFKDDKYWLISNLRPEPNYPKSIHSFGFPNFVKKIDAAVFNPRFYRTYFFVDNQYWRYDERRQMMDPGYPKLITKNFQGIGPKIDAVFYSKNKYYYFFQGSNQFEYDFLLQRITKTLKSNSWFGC

CC(C)[C@H](NS(=O)(=O)c1ccc2c(c1)oc1ccc(-c3cnn(C)c3)cc12)C(=O)O [Compound 18, (S)-3-methyl-2-(8-(1-methyl-1H-pyrazol-4-yl)dibenzo[b,d]furan-3-sulfonamido)butanoic acid] and CCCn1cc(-c2ccc3oc4cc(S(=O)(=O)N[C@H](C(=O)O)C(C)C)ccc4c3c2)cn1 [Compound 21, (S)-3-methyl-2-(8-(1-propyl-1H-pyrazol-4-yl)dibenzo[b,d]furan-3-sulfonamido)butanoic acid] cannot be ordered by IC50: < 1.5 nM for the first, < 1.5 nM for the second.

Compared with Cc1n[nH]c(C)c1-c1ccc2oc3cc(S(=O)(=O)N[C@H](C(=O)O)C(C)C)ccc3c2c1 [Compound 19, (S)-2-(8-(3,5-dimethyl-1H-pyrazol-4-yl)dibenzo[b,d]furan-3-sulfonamido)-3-methylbutanoic acid], Cc1n[nH]c(C)c1-c1ccc2sc3cc(S(=O)(=O)N[C@H](C(=O)O)C(C)C)ccc3c2c1 [Compound 41, (S)-2-(8-(3,5-dimethyl-1H-pyrazol-4-yl)dibenzo[b,d]thiophene-3-sulfonamido)-3-methylbutanoic acid] is 1.8-fold higher in IC50: 44 nM for the first, 77 nM for the second.

Compared with CC(C)CCn1cc(-c2ccc3oc4cc(S(=O)(=O)N[C@H](C(=O)O)C(C)C)ccc4c3c2)cn1 [Compound 20, (S)-2-(8-(1-isopentyl-1H-pyrazol-4-yl)dibenzo[b,d]furan-3-sulfonamido)-3-methylbutanoic acid], CC(C)CCn1cc(-c2ccc3sc4cc(S(=O)(=O)N[C@H](C(=O)O)C(C)C)ccc4c3c2)cn1 [Compound 43, (S)-2-(8-(1-isopentyl-1H-pyrazol-4-yl)dibenzo[b,d]thiophene-3-sulfonamido)-3-methylbutanoic acid] is 22-fold higher in IC50: 4 nM for the first, 88 nM for the second.

Going from CC(C)[C@H](NS(=O)(=O)c1ccc2c(c1)oc1ccc(-c3cnn(Cc4ccccc4)c3)cc12)C(=O)O [Compound 22, (S)-2-(8-(1-benzyl-1H-pyrazol-4-yl)dibenzo[b,d]furan-3-sulfonamido)-3-methylbutanoic acid] to CC(C)[C@H](NS(=O)(=O)c1ccc2c(c1)sc1ccc(-c3cnn(Cc4ccccc4)c3)cc12)C(=O)O [Compound 44, (S)-2-(8-(1-benzyl-1H-pyrazol-4-yl)dibenzo[b,d]thiophene-3-sulfonamido)-3-methylbutanoic acid], the IC50 rises from 3 nM to 65 nM (22-fold).

First: CC(C)[C@H](NS(=O)(=O)c1ccc2c(c1)oc1ccc(-c3cn[nH]c3)cc12)C(=O)O [Compound 23, (S)-2-(8-(1H-pyrazol-4-yl)dibenzo[b,d]furan-3-sulfonamido)-3-methylbutanoic acid]
Second: CC(C)[C@H](NS(=O)(=O)c1ccc2c(c1)sc1ccc(-c3cn[nH]c3)cc12)C(=O)O [Compound 45, (S)-2-(8-(1H-pyrazol-4-yl)dibenzo[b,d]thiophene-3-sulfonamido)-3-methylbutanoic acid]
The IC50 of the first is lower: < 1.5 nM for the first, 5.5 nM for the second.

Going from Cc1cscc1-c1ccc2sc3cc(S(=O)(=O)N[C@H](C(=O)O)C(C)C)ccc3c2c1 [Compound 24, (S)-3-methyl-2-(8-(4-methylthiophen-3-yl)dibenzo[b,d]thiophene-3-sulfonamido)butanoic acid] to CC(C)[C@H](NS(=O)(=O)c1ccc2c(c1)sc1ccc(-c3ccsc3)cc12)C(=O)O [Compound 26, (S)-3-methyl-2-(8-(thiophen-3-yl)dibenzo[b,d]thiophene-3-sulfonamido)butanoic acid], the IC50 falls from 190 nM to 38 nM (5-fold).

Going from CC(C)[C@H](NS(=O)(=O)c1ccc2c(c1)sc1ccc(-c3ccoc3)cc12)C(=O)O [Compound 25, (S)-2-(8-(furan-3-yl)dibenzo[b,d]thiophene-3-sulfonamido)-3-methylbutanoic acid] to CC(C)[C@H](NS(=O)(=O)c1ccc2c(c1)sc1ccc(-c3cnn(C)c3)cc12)C(=O)O [Compound 40, (S)-3-methyl-2-(8-(1-methyl-1H-pyrazol-4-yl)dibenzo[b,d]thiophene-3-sulfonamido)butanoic acid], the IC50 falls from 4.8 nM to 2.6 nM (1.8-fold). The second is the more potent here.

Going from Cc1noc(C)c1-c1ccc2sc3cc(S(=O)(=O)N[C@H](C(=O)O)C(C)C)ccc3c2c1 [Compound 27, (S)-2-(8-(3,5-dimethylisoxazol-4-yl)dibenzo[b,d]thiophene-3-sulfonamido)-3-methylbutanoic acid] to CC(=O)c1ccc(-c2ccc3sc4cc(S(=O)(=O)N[C@H](C(=O)O)C(C)C)ccc4c3c2)s1 [Compound 47, (S)-2-(8-(5-acetylthiophen-2-yl)dibenzo[b,d]thiophene-3-sulfonamido)-3-methylbutanoic acid], the IC50 falls from 700 nM to 2.9 nM (240-fold).

CC(C)[C@H](NS(=O)(=O)c1ccc2c(c1)oc1ccc(-c3ccsc3)cc12)C(=O)O [Compound 28, (S)-3-methyl-2-(8-(thiophen-3-yl)dibenzo[b,d]furan-3-sulfonamido)butanoic acid] and CC(C)[C@H](NS(=O)(=O)c1ccc2c(c1)oc1ccc(-c3ccsc3Cl)cc12)C(=O)O [Compound 34, (S)-2-(8-(2-chlorothiophen-3-yl)dibenzo[b,d]furan-3-sulfonamido)-3-methylbutanoic acid] cannot be ordered by IC50: < 1.5 nM for the first, < 1.5 nM for the second.

CC(=O)c1ccc(-c2ccc3oc4cc(S(=O)(=O)N[C@H](C(=O)O)C(C)C)ccc4c3c2)s1 [Compound 32, (S)-2-(8-(5-acetylthiophen-2-yl)dibenzo[b,d]furan-3-sulfonamido)-3-methylbutanoic acid] and Cc1csc(-c2ccc3oc4cc(S(=O)(=O)N[C@H](C(=O)O)C(C)C)ccc4c3c2)c1 [Compound 33, (S)-3-methyl-2-(8-(4-methylthiophen-2-yl)dibenzo[b,d]furan-3-sulfonamido)butanoic acid] cannot be ordered by IC50: < 1.5 nM for the first, < 1.5 nM for the second.

CC(C)[C@H](NS(=O)(=O)c1ccc2c(c1)oc1ccc(/C=C/C3CCCCC3)cc12)C(=O)O [Compound 35, (S,E)-2-(8-(2-cyclohexylvinyl)dibenzo[b,d]furan-3-sulfonamido)-3-methylbutanoic acid] and COC#Cc1ccc2oc3cc(S(=O)(=O)N[C@H](C(=O)O)C(C)C)ccc3c2c1 [Compound 38, (S)-2-(8-(methoxyethynyl)dibenzo[b,d]furan-3-sulfonamido)-3-methylbutanoic acid] cannot be ordered by IC50: < 1.5 nM for the first, < 1.5 nM for the second.

Compared with CC(C)[C@H](NS(=O)(=O)c1ccc2c(c1)oc1ccc(-c3ccco3)cc12)C(=O)O [Compound 37, (S)-2-(8-(furan-2-yl)dibenzo[b,d]furan-3-sulfonamido)-3-methylbutanoic acid], CC(C)[C@H](NS(=O)(=O)c1ccc2c(c1)oc1ccc(-c3occc3CN(C)C)cc12)C(=O)O [Compound 48, (S)-2-(8-(3-((dimethylamino)methyl)furan-2-yl)dibenzo[b,d]furan-3-sulfonamido)-3-methylbutanoic acid] is 62-fold higher in IC50: 1.9 nM for the first, 118 nM for the second. The first is the more potent here.

First: CCN(C#Cc1ccc2oc3cc(S(=O)(=O)N[C@H](C(=O)O)C(C)C)ccc3c2c1)CC [Compound 39, (S)-2-(8-((diethylamino)ethynyl)dibenzo[b,d]furan-3-sulfonamido)-3-methylbutanoic acid]
Second: CCCn1cc(-c2ccc3sc4cc(S(=O)(=O)N[C@H](C(=O)O)C(C)C)ccc4c3c2)cn1 [Compound 42, (S)-3-methyl-2-(8-(1-propyl-1H-pyrazol-4-yl)dibenzo[b,d]thiophene-3-sulfonamido)butanoic acid]
The IC50 of the first is 5-fold higher: 39 nM for the first, 7.8 nM for the second.

CC(C)[C@H](NS(=O)(=O)c1ccc2c(c1)sc1ccc(-c3cc4ccccc4s3)cc12)C(=O)O [Compound 46, (S)-2-(8-(benzo[b]thiophen-2-yl)dibenzo[b,d]thiophene-3-sulfonamido)-3-methylbutanoic acid] gave an IC50 of 289 nM.
